Measurements taken from patent US11718618B2, “Substituted pyrido[2,1-a]isoquinolines as VMAT2 inhibitors” (priority 2021, dated 2023).

What was measured:
human VMAT2 = human VMAT2 (Homo sapiens (Human), UniProt Q05940); assay: VMAT2 radioligand binding, 3H-dihydrotetrabenazine competition on human platelet homogenate; details: 10 nM 3H-dihydrotetrabenazine, human platelet homogenate, 25° C., 90 minutes; read-out: VMAT2 Ki
Outline: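 Human platelet homogenate (30 μg membrane protein/well) in DPBS with 1 mM EDTA, pH 7.4; twelve test-compound concentrations competed against 10 nM ³H-dihydrotetrabenazine. Incubated 90 min at 25 °C, bound radioligand collected by filtration on PEI-pretreated glass-fibre filters and counted by scintillation; Ki derived.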

[1] = Stability of compounds in human liver microsomes; format: in vitro ADME; details: for CLint scaled at 0.5 μM / half-life at 0.5 μM: both sexes, pH 7.4; for CLint scaled at 0.5 μM: liver microsomes, calculated from HLM half-life, read-out: HLM Scaled Intrinsic Clearance; for CLint scaled at 0.5 μM / Predicted Max. Bioavailability (% F) / HLM Predicted Systemic Clearance: human; for half-life at 0.5 μM: 0.5 μM compound, 0.5 mg/mL human liver microsomes, 37° C., maxed at 420 minutes, read-out: HLM Elimination half-life (t1/2, min); for Predicted Max. Bioavailability (% F): predicted from HLM data; for HLM Predicted Systemic Clearance: scaled from HLM half-life (Obach method)
Outline: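 Compound at 0.5 μM incubated at 37 °C with pooled mixed-gender human liver microsomes (0.5 mg/mL protein) and an NADPH-generating system in pH 7.4 phosphate buffer, sampled 0–60 min. Parent depletion tracked by LC-MS/MS; t1/2 derived from the slope by non-linear regression, with predicted extraction ratio and maximum bioavailability also calculated.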

Chain of human VMAT2 (Q05940 whole entry): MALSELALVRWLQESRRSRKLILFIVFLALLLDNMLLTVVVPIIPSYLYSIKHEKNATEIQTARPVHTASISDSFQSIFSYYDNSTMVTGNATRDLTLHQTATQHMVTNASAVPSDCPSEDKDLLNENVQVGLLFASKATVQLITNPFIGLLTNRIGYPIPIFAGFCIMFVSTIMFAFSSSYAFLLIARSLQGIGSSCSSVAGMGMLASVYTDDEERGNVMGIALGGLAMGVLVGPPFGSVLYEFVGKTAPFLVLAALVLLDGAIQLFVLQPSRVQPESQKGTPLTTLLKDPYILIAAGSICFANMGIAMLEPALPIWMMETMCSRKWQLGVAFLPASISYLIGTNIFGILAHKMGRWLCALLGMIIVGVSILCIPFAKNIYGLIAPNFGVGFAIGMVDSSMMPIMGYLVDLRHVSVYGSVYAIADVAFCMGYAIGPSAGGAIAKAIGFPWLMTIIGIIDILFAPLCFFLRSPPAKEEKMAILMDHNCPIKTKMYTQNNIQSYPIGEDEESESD

## COc1cc2c(cc1OCCc1ccc(C(F)(F)F)cc1)CCN1C[C@@H](CC(C)(C)C)[C@H](O)C[C@H]21 [Compound 4-74, (2R,3R,11bR)-3-(2,2-dimethylpropyl)-10-methoxy-9-{2-[4-(trifluoromethyl)phenyl]ethoxy}-1H,2H,3H,4H,6H,7H,11bH-pyrido[2,1-a]isoquinolin-2-ol]
Human VMAT2
  Ki: 65 nM
[1]
  CLint scaled at 0.5 μM: 34.6 mL/min/kg
  half-life at 0.5 μM: 36 min
  Predicted Max. Bioavailability (% F): 37 % F
  HLM Predicted Systemic Clearance: 12.68 mL/min/kg

## COCCOc1cc2c(cc1OC)[C@H]1C[C@@H](O)[C@H](CC(C)(C)C)CN1CC2 [Compound 4-26, (2R,3R,11bR)-3-(2,2-dimethylpropyl)-10-methoxy-9-(2-methoxyethoxy)-1H,2H,3H,4H,6H,7H,11bH-pyrido[2,1-a]isoquinolin-2-ol]
Human VMAT2
  Ki: 14 nM
[1]
  CLint scaled at 0.5 μM: 14.2 mL/min/kg
  half-life at 0.5 μM: 88 min
  Predicted Max. Bioavailability (% F): 58 % F
  HLM Predicted Systemic Clearance: 8.32 mL/min/kg

## COc1cc2c(cc1OCC1(O)CCC(F)(F)CC1)CCN1C[C@@H](CC(C)(C)C)[C@H](O)C[C@H]21 [Compound 4-76, (2R,3R,11bR)-9-[(4,4-difluoro-1-hydroxycyclohexyl)methoxy]-3-(2,2-dimethylpropyl)-10-methoxy-1H,2H,3H,4H,6H,7H,11bH-pyrido[2,1-a]isoquinolin-2-ol]
Human VMAT2
  Ki: 82 nM
[1]
  CLint scaled at 0.5 μM: ≤ 2.97 mL/min/kg
  half-life at 0.5 μM: ≥ 420 min
  Predicted Max. Bioavailability (% F): ≥87 % F
  HLM Predicted Systemic Clearance: ≤2.59 mL/min/kg

## COc1cc2c(cc1OCCCC(F)(F)F)CCN1C[C@@H](CC(C)(C)C)[C@H](O)C[C@H]21 [Compound 4-120, (2R,3R,11bR)-3-(2,2-dimethylpropyl)-10-methoxy-9-(4,4,4-trifluorobutoxy)-1H,2H,3H,4H,6H,7H,11bH-pyrido[2,1-a]isoquinolin-2-ol]
Human VMAT2
  Ki: 1.5 nM
[1]
  CLint scaled at 0.5 μM: ≤ 2.97 mL/min/kg
  half-life at 0.5 μM: ≥ 420 min
  Predicted Max. Bioavailability (% F): ≥87 % F
  HLM Predicted Systemic Clearance: ≤2.59 mL/min/kg

## COc1cc2c(cc1OCc1ccon1)CCN1C[C@@H](CC(C)(C)C)[C@H](O)C[C@H]21 [Compound 4-69, (2R,3R,11bR)-3-(2,2-dimethylpropyl)-10-methoxy-9-(1,2-oxazol-3-ylmethoxy)-1H,2H,3H,4H,6H,7H,11bH-pyrido[2,1-a]isoquinolin-2-ol]
Human VMAT2
  Ki: 32 nM
[1]
  CLint scaled at 0.5 μM: 15.5 mL/min/kg
  half-life at 0.5 μM: 80 min
  Predicted Max. Bioavailability (% F): 56 % F
  HLM Predicted Systemic Clearance: 8.74 mL/min/kg

## COc1cc2c(cc1OCCOC(C#N)C1CC1)CCN1C[C@@H](CC(C)(C)C)[C@H](O)C[C@H]21 (stereo partly drawn) [Compound 4-43, 2-(2-{[(2R,3R,11bR)-3-(2,2-dimethylpropyl)-2-hydroxy-10-methoxy-1H,2H,3H,4H,6H,7H,11bH-pyrido[2,1-a]isoquinolin-9-yl]oxy}ethoxy)-2-cyclopropylacetonitrile]
Human VMAT2
  Ki: 4.8 nM
[1]
  CLint scaled at 0.5 μM: 68.8 mL/min/kg
  half-life at 0.5 μM: 18 min
  Predicted Max. Bioavailability (% F): 23 % F
  HLM Predicted Systemic Clearance: 15.5 mL/min/kg

## COc1cc2c(cc1OCC1CCN(C#N)CC1)CCN1C[C@@H](CC(C)(C)C)[C@H](O)C[C@H]21 [Compound 4-73]
Human VMAT2
  Ki: 51 nM
[1]
  CLint scaled at 0.5 μM: 10.5 mL/min/kg
  half-life at 0.5 μM: 119 min
  Predicted Max. Bioavailability (% F): 66 % F
  HLM Predicted Systemic Clearance: 6.88 mL/min/kg

## COc1cc2c(cc1OCC1(F)CCC1)CCN1C[C@@H](CC(C)(C)C)[C@H](O)C[C@H]21 [Compound 4-61, (2R,3R,11bR)-3-(2,2-dimethylpropyl)-9-[(1-fluorocyclobutyl)methoxy]-10-methoxy-1H,2H,3H,4H,6H,7H,11bH-pyrido[2,1-a]isoquinolin-2-ol]
Human VMAT2
  Ki: 3.5 nM
[1]
  CLint scaled at 0.5 μM: 42 mL/min/kg
  half-life at 0.5 μM: 30 min
  Predicted Max. Bioavailability (% F): 32 % F
  HLM Predicted Systemic Clearance: 13.55 mL/min/kg

## COc1cc2c(cc1OC[C@H](C)O)CCN1C[C@@H](CC(C)(C)C)[C@H](O)C[C@H]21 [Compound 4-114, (2R,3R,11bR)-3-(2,2-dimethylpropyl)-9-[(2S)-2-hydroxypropoxy]-10-methoxy-1H,2H,3H,4H,6H,7H,11bH-pyrido[2,1-a]isoquinolin-2-ol]
Human VMAT2
  Ki: 70 nM
[1]
  CLint scaled at 0.5 μM: ≤ 2.97 mL/min/kg
  half-life at 0.5 μM: ≥ 420 min
  Predicted Max. Bioavailability (% F): ≥87 % F
  HLM Predicted Systemic Clearance: ≤2.59 mL/min/kg

## COc1cc2c(cc1OC)[C@H]1C[C@@H](O)[C@H](CC(C)(C)C)CN1CC2 [Compound 5-1, (2R,3R,11bR)-3-(2,2-dimethylpropyl)-9,10-dimethoxy-1H,2H,3H,4H,6H,7H,11bH-pyrido[2,1-a]isoquinolin-2-ol]
Human VMAT2
  Ki: 6.6 nM
[1]
  CLint scaled at 0.5 μM: 15.6 mL/min/kg
  half-life at 0.5 μM: 80 min
  Predicted Max. Bioavailability (% F): 56 % F
  HLM Predicted Systemic Clearance: 8.77 mL/min/kg

## COc1cc2c(cc1OCCCF)CCN1C[C@@H](CC(C)(C)C)[C@H](O)C[C@H]21 [Compound 4-28, (2R,3R,11bR)-3-(2,2-dimethylpropyl)-9-(3-fluoropropoxy)-10-methoxy-1H,2H,3H,4H,6H,7H,11bH-pyrido[2,1-a]isoquinolin-2-ol]
Human VMAT2
  Ki: 0.48 nM
[1]
  CLint scaled at 0.5 μM: 31.8 mL/min/kg
  half-life at 0.5 μM: 39 min
  Predicted Max. Bioavailability (% F): 39 % F
  HLM Predicted Systemic Clearance: 12.28 mL/min/kg

## COc1cc2c(cc1OCCC(F)(F)F)CCN1C[C@H](CC(C)(C)C)[C@@H](O)C[C@@H]21 [Compound 4-9, (2S,3S,11bS)-3-(2,2-dimethylpropyl)-10-methoxy-9-(3,3,3-trifluoropropoxy)-1H,2H,3H,4H,6H,7H,11bH-pyrido[2,1-a]isoquinolin-2-ol]
Human VMAT2
  Ki: 277 nM
[1]
  CLint scaled at 0.5 μM: ≤ 2.97 mL/min/kg
  half-life at 0.5 μM: ≥ 420 min
  Predicted Max. Bioavailability (% F): ≥87 % F
  HLM Predicted Systemic Clearance: ≤2.59 mL/min/kg

## COc1cc2c(cc1OCc1ccccc1)CCN1C[C@@H](CC(C)(C)C)[C@H](O)C[C@H]21 [Compound 4-60, (2R,3R,11bR)-9-(benzyloxy)-3-(2,2-dimethylpropyl)-10-methoxy-1H,2H,3H,4H,6H,7H,11bH-pyrido[2,1-a]isoquinolin-2-ol]
Human VMAT2
  Ki: 3.1 nM
[1]
  CLint scaled at 0.5 μM: 33.9 mL/min/kg
  half-life at 0.5 μM: 37 min
  Predicted Max. Bioavailability (% F): 37 % F
  HLM Predicted Systemic Clearance: 12.58 mL/min/kg

## COc1cc2c(cc1OCC(F)(F)F)CCN1C[C@@H](CC(C)(C)C)[C@@H](O)C[C@H]21 [Compound 4-16, (2S,3R,11bR)-3-(2,2-dimethylpropyl)-10-methoxy-9-(2,2,2-trifluoroethoxy)-1H,2H,3H,4H,6H,7H,11bH-pyrido[2,1-a]isoquinolin-2-ol]
Human VMAT2
  Ki: 22 nM
[1]
  CLint scaled at 0.5 μM: ≤ 2.97 mL/min/kg
  half-life at 0.5 μM: ≥ 420 min
  Predicted Max. Bioavailability (% F): ≥87 % F
  HLM Predicted Systemic Clearance: ≤2.59 mL/min/kg

## COc1cc2c(cc1O[C@H]1CCOC1)CCN1C[C@@H](CC(C)(C)C)[C@H](O)C[C@H]21 [Compound 4-54, (2R,3R,11bR)-3-(2,2-dimethylpropyl)-10-methoxy-9-[(3S)-oxolan-3-yloxy]-1H,2H,3H,4H,6H,7H,11bH-pyrido[2,1-a]isoquinolin-2-ol]
Human VMAT2
  Ki: 12 nM
[1]
  CLint scaled at 0.5 μM: 7.59 mL/min/kg
  half-life at 0.5 μM: 164 min
  Predicted Max. Bioavailability (% F): 73 % F
  HLM Predicted Systemic Clearance: 5.5 mL/min/kg
